Laboratory results as given in patent US20130004590A1, “ZINC OXIDE/ACID CONTAINING COMPOSITIONS AND METHODS FOR TREATING AND/OR PREVENTING ENZYMATIC IRRITATION” (priority 2011, published 2013).
Where two headings read alike, the source gives them in different places.

Assays:
trypsin [1] = test: EnzChek protease assay: trypsin inhibition by mixtures of talc with divalent cation salts; format: biochemical; settings: for Hypothetically calculated additive value of salt and Talc, trypsin inhibition activities (%): Table 3, salt alone plus talc alone (8.55%)
Protocol: The objective of the following experiment was to determine whether and to what extent adding a divalent cation to talc inhibited trypsin activity in an in vitro assay. The inhibition of trypsin-induced cleavage of a fluorescent casein peptide was measured using the EnzChek™ protease assay kit, following manufacturer's instructions (EnzChek™ Protease Assay Kits Product Information, Revised; Molecular Probes, Eugene Oreg.). […] Trypsin working solution (Sigma, St. Louis, Mo., unit/mL) was prepared in digestion buffer provided in the assay kit. Stock solution of BODIPY FL casein (trypsin substrate, mg/mL) was prepared by adding 0.2 mL to the substrate vials (provided in kit), and the final substrate working solution (10 microgram/mL) was prepared by dilution in digestion buffer (pH 7.8). Following incubation of the trypsin, with or without the test materials, with the BODIPY fluorescent casein substrate, at room temperature for one hour, fluorescence was measured (excitation 485 nm/emission 530 nm) using a SpectraMax microtiter plate reader (Molecular Devices Corporation, Sunnyvale, Calif.) and Softmax Pro software (Molecular Devices Corporation). Each experiment was performed in three replicates.

trypsin [2] = test: EnzChek protease assay: trypsin inhibition by zinc oxide/acid mixtures and formulations; format: biochemical; settings: text b137, on Table 5
Protocol: Each experiment was performed in three replicates.
For preparations, samples were diluted in 1×PBS at 1:10 ratio and subjected to centrifugation at 13,200 rpm for 1 min using Eppendorf Centrifuge (Model 5415D, Eppendorf AG, Hamburg, Germany) to remove the solid formulation ingredients. The supernatants (50 μl) were used for trypsin inhibitory activity analyses as described above. For preparations, samples were diluted in 10, or 20 or 40% ethanol and subjected to centrifugation at 13,200 rpm for 1 min using Eppendorf Centrifuge (Model 5415D, Eppendorf AG, Hamburg, Germany) to remove the solid formulation ingredients. The supernatants (50 μl) were used for trypsin inhibition assay. Possible effects of ethanol solution (10, 20 or 40% ethanol) on trypsin inhibition activity were tested in the same study and found no significant impact.
For the above study, the results are an average of three independent experiments, wherein the samples, which were diluted at 1:10 ratio in 1×PBS solutions containing 10%, 20% or 40% ethanol, were tested in triplicates. The results are from an average of all conditions at the same dilution.
For the currently available product (i.e., Baby Paste 5.0, Mendelson Pharmaceuticals LLC, Mountainside, N.J.), the results are an average of a single study: sample diluted at 1:10 ratio, in 1×PBS solutions containing 10%, 20% or 40% ethanol, was tested in triplicate. […]

[3] = Protocol: The objective of the following experiment was to determine whether and to what extent adding an acid to a formulation containing zinc oxide had on inhibition of trypsin activity in an in vitro assay. The inhibition of trypsin-induced cleavage of a fluorescent casein peptide was measured using the EnzChek™ protease assay kit, following manufacturer's instructions (EnzChek™ Protease Assay Kits Product Information, Revised; Molecular Probes, Eugene Oreg.). Briefly, mixtures of zinc oxide and acid at different concentrations were prepared in 1×PBS (pH 7.4) and their pH was recorded as listed in the Tables 5-8. Trypsin working solution (Sigma, St. Louis, Mo., unit/mL) was prepared in digestion buffer provided in the assay kit. Stock solution of BODIPY FL casein (trypsin substrate, mg/mL) was prepared by adding 0.2 mL to the substrate vials (provided in kit), and the final substrate working solution (10 microgram/mL) was prepared by dilution in digestion buffer (pH 7.8). Following incubation of the trypsin, with or without the test materials (50 μl), with the BODIPY fluorescent casein substrate, at room temperature for one hour, fluorescence was measured (excitation 485 nm/emission 530 nm) using a SpectraMax microtiter plate reader (Molecular Devices Corporation, Sunnyvale, Calif.) and Softmax Pro software (Molecular Devices Corporation). Each experiment was performed in three replicates.

Compound: CC(=O)[O-].CC(=O)[O-].O.[Ca+2] [Calcium acetate monohydrate]
- Hypothetically calculated additive value of salt and Talc, trypsin inhibition activities (%) (trypsin [1]): 23.86%

Compound: [Ca+2].[Cl-].[Cl-] [Calcium chloride]
- Hypothetically calculated additive value of salt and Talc, trypsin inhibition activities (%) (trypsin [1]): 26.50%

Compound: O.O.O.O.[Cl][Fe][Cl] [Iron (II) chloride tetrahydrate]
- Hypothetically calculated additive value of salt and Talc, trypsin inhibition activities (%) (trypsin [1]): 73.62%

Compound: CC(=O)[O-].CC(=O)[O-].O.O.O.O.[Mg+2] [Magnesium acetate tetrahydrate]
- Hypothetically calculated additive value of salt and Talc, trypsin inhibition activities (%) (trypsin [1]): 9.38%

Compound: [Cl-].[Cl-].[Mg+2] [Magnesium chloride]
- trypsin inhibitory activity, alone, in words (trypsin [1]): moderate to low levels
- Hypothetically calculated additive value of salt and Talc, trypsin inhibition activities (%) (trypsin [1]): 13.30%

Compound: CC(=O)[O-].CC(=O)[O-].[Zn+2] [Zinc acetate dihydrate]
- Hypothetically calculated additive value of salt and Talc, trypsin inhibition activities (%) (trypsin [1]): 71.39%

Compound: [Cl-].[Cl-].[Zn+2] [Zinc chloride]
- Hypothetically calculated additive value of salt and Talc, trypsin inhibition activities (%) (trypsin [1]): 89.62%

Compound: [O]=[Zn] [ZnO, zinc oxide]
- protease activity of zinc oxide, in words (trypsin [2]): minimal protease activity
- pH ([3]; 0.1% ZnO, 0.01% acetic acid in 1x PBS): 7.28
- pH ([3]; 0.1% ZnO, 0.05% acetic acid in 1x PBS): 6.03
- pH ([3]; 0.1% ZnO, No acetic acid in 1x PBS): 7.61
- pH ([3]; 1% ZnO, 0.01% acetic acid in 1x PBS): 7.85
- pH ([3]; 1% ZnO, 0.05% acetic acid in 1x PBS): 6.08
- pH ([3]; 1% ZnO, No acetic acid in 1x PBS): 8.07

Compound: CC(=O)O [acetic acid]
- pH ([3]; No ZnO, 0.01% acetic acid in 1x PBS): 6.84
- pH ([3]; No ZnO, 0.05% acetic acid in 1x PBS): 4.75
